Results from US7445909B2, “Method for detecting reactive metabolites using a combination of glutathione and a stable isotopic derivative of glutathione and mass spectroscopy-based pattern recognition” (Janssen Phamaceutica N.V., priority 2004, dated 2008).

Legend:
[1] = tested on: human microsomal proteins; test: Stable isotope (GSH/GSX) trapping of reactive metabolites in microsomal incubation, FIA-MS/MS neutral loss scanning of 129 Da; type: in vitro ADME; conditions: 10 μM test compound, 1 mg/mL human microsomal proteins, 1 mM GSH and GSX (1:1), 60 min, 37° C.; flow injection FIA-MS/MS, analysis within 30 sec
Experimental: All microsomal incubations described herein were performed at 37° C. in a water bath. The test compound (or drug candidate) was mixed with human microsomal proteins in 50 mM potassium phosphate buffer (pH 7.4) supplemented with GSH and GSX that were pre-mixed at an equal molar ratio of 1:1. Reaction mixtures were then warmed at 37° C. for 5 min. The reactions were initiated by the addition of a NADPH generating system to yield a final volume of 1000 μL. The final reaction mixtures contained 10 μM test compounds, 1 mg/mL microsomal proteins, 1 mM GSH and GSX, 1.3 mM NADP^+, 3.3 mM glucose-6-phosphate, 0.4 U/ml glucose-6-phosphate dehydrogenase, 3.3 mM magnesium chloride. After a 60 min incubation, the reactions were terminated by the addition of 150 μL of trichloroacetic acid (10%). The samples were centrifuged at 10,000 g for 15 min at 4° C. to pellet the precipitated protein, and the supernatants were subjected to solid-phase extractions. […]
For rapid screening of reactive metabolites (as described in Example 11), cleaned samples were directly injected to the mass spectrometer that was operated in the neutral scanning mode. […] After a glutathione conjugate was detected, CID MS/MS spectrum was subsequently acquired to determine the structure of the glutathione conjugate. […]

[2] = tested on: human microsomal proteins; test: Stable isotope (GSH/GSX) trapping of reactive metabolites in microsomal incubation, LC-MS/MS neutral loss scanning of 129 Da; type: in vitro ADME; conditions: 10 μM test compound, 1 mg/mL human microsomal proteins, 1 mM GSH and GSX (1:1), NADPH generating system, 60 min, 37° C., pH 7.4
Experimental: All microsomal incubations described herein were performed at 37° C. in a water bath. […] Alternatively, the reaction mixtures were subjected to liquid-liquid extractions to recover the metabolites from supernatants.
MS analyses were performed on a Micromass (Manchester, UK) Quattro Micro triple quadrupole mass spectrometer.
For complete profiling of reactive metabolites, samples were first subjected to chromatographic separations with an Agilent 1100 HPLC system with an auto-sampler (Agilent Technologies, Palo Alto, Calif.), and eluents were introduced to the Quattro Micro triple quadrupole mass spectrometer operated in the neutral loss scanning mode. An Agilent Zorbax SB C18 column (2.1×50 mm) was used for the chromatographic separation. […] At 7 min, the column was flushed with 95% acetonitrile for 2 min before re-equilibration at initial conditions. […] Data were processed using the Masslynx version 4.0 software from Micromass.

detection of reactive metabolites (characteristic isotopic doublet of GSH/GSX adducts in neutral loss mass spectrum) [2] | SMILES | detection of reactive metabolite (characteristic isotopic doublet of GSH/GSX adducts in neutral loss mass spectrum) [1]
two reactive metabolites were co-eluted | O=C(O)Cc1ccccc1Nc1c(Cl)cccc1Cl [Diclofenac] | 
no reactive metabolites were formed | NC(=O)OCC(COC(N)=O)c1ccccc1 [Felbamate] | 

SMILES | detection of reactive metabolites (characteristic isotopic doublet of GSH/GSX adducts in neutral loss mass spectrum) [2] | detection of reactive metabolite (characteristic isotopic doublet of GSH/GSX adducts in neutral loss mass spectrum) [1]
C[C@]12CC[C@@H]3c4ccc(O)c(O)c4CC[C@H]3[C@@H]1CCC2=O [4-Hydroxyestrone] | only one component at a retention time of 5.11 min displayed characteristic doublet | the reactive metabolite was detected
